# Source: ChEMBL document CHEMBL1201862, “PubChem BioAssay data set” (2004)
#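 Step 1: Grow cells in 96-well plates. Step 2: Expose to compound for 48 hours at 5 concentrations. Step 3: Interpolate endpoints linearly; if unreached, use highest concentration. GI50 is the concentration that inhibits growth by half.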 The source made the active and inactive calls. Rule as the data show it: active = GI50 up to about 1.1 µM and inactive = higher.
# Assays:
# Assay in all cases: NCI-60 cell line screen, 48 h
# [1] = test system: HOP-92
# [2] = test system: SK-MEL-28
# [3] = test system: HL-60
# [4] = test system: NCI-H522
# [5] = test system: CCRF-CEM
# [6] = test system: HCC 2998
# [7] = test system: DLD-1
# [8] = test system: A549
# [9] = test system: HT-29
# [10] = test system: U-251
# [11] = test system: OVCAR-8
# [12] = test system: OVCAR-4
# [13] = test system: M19-MEL
# [14] = test system: NCI-H460
# [15] = test system: XF498
# [16] = test system: HCT-15
# [17] = test system: SNB-19
# [18] = test system: SNB-78
# [19] = test system: Malme-3M
# [20] = test system: KM12
# [21] = test system: RXF 631
# [22] = test system: CAKI-1
# [23] = test system: HOP-18
# [24] = test system: LOX IMVI
# [25] = test system: ACHN
# [26] = test system: SK-MEL-5
# [27] = test system: OVCAR-3
# [28] = test system: DMS-273
# [29] = test system: DU-145
# [30] = test system: RXF 393
# [31] = test system: TK-10
# [32] = test system: HCT-116
# [33] = test system: M14
# [34] = test system: LXFL 529
# [35] = test system: UACC-257
# [36] = test system: PC-3
# [37] = test system: NCI-H23
# [38] = test system: NCI-H226
# [39] = test system: UO-31
# [40] = test system: SK-OV-3
# [41] = test system: SN12C
# [42] = test system: SW-620
# [43] = test system: SF-539
# [44] = test system: UACC-62
# [45] = test system: K562
# [46] = test system: SNB-75
# [47] = test system: HOP-62
# [48] = test system: 786-0
# [49] = test system: EKVX
# [50] = test system: SF-268
# [51] = test system: IGROV-1
# [52] = test system: KM-20L2
# [53] = test system: SF-295
# [54] = test system: OVCAR-5
# [55] = test system: A498
# [56] = test system: RPMI-8226
# [57] = test system: DMS-114
# [58] = test system: COLO 205
# [59] = test system: SK-MEL-2
smiles,measurement,setting,value
Nc1nc2c(ncn2C2OC(CO)C(O)C2O)c(=O)o1 (centres undefined),GI50,[1],> 100 µM (inactive)
same,GI50,[2],> 100 µM (inactive)
same,GI50,[3],> 45.1 µM (inactive)
same,GI50,[4],18.6 µM (inactive)
same,GI50,[5],> 23.2 µM (inactive)
same,GI50,[6],5.82 µM (inactive)
same,GI50,[7],> 89.1 µM (inactive)
same,GI50,[8],> 100 µM (inactive)
same,GI50,[9],26.4 µM (inactive)
same,GI50,[10],> 100 µM (inactive)
same,GI50,[11],> 100 µM (inactive)
same,GI50,[12],> 100 µM (inactive)
same,GI50,[13],> 100 µM (inactive)
same,GI50,[14],> 100 µM (inactive)
same,GI50,[15],> 100 µM (inactive)
same,GI50,[16],42.9 µM
same,GI50,[17],> 100 µM (inactive)
same,GI50,[18],> 100 µM (inactive)
same,GI50,[19],> 100 µM (inactive)
same,GI50,[20],> 100 µM (inactive)
same,GI50,[21],> 100 µM (inactive)
same,GI50,[22],> 100 µM (inactive)
same,GI50,[23],> 100 µM (inactive)
same,GI50,[24],> 58.2 µM (inactive)
same,GI50,[25],> 83.8 µM (inactive)
same,GI50,[26],> 100 µM (inactive)
same,GI50,[27],> 100 µM (inactive)
same,GI50,[28],22.5 µM (inactive)
same,GI50,[29],> 100 µM (inactive)
same,GI50,[30],> 100 µM (inactive)
same,GI50,[31],> 100 µM (inactive)
same,GI50,[32],> 82.2 µM (inactive)
same,GI50,[33],> 100 µM (inactive)
same,GI50,[34],> 100 µM (inactive)
same,GI50,[35],> 100 µM (inactive)
same,GI50,[36],> 100 µM (inactive)
same,GI50,[37],> 84.1 µM (inactive)
same,GI50,[38],> 100 µM (inactive)
same,GI50,[39],> 87.1 µM (inactive)
same,GI50,[40],> 100 µM (inactive)
same,GI50,[41],> 100 µM (inactive)
same,GI50,[42],> 33.4 µM (inactive)
same,GI50,[43],> 100 µM (inactive)
same,GI50,[44],> 100 µM (inactive)
same,GI50,[45],> 21.9 µM (inactive)
same,GI50,[46],> 100 µM (inactive)
same,GI50,[47],> 100 µM (inactive)
same,GI50,[48],> 100 µM (inactive)
same,GI50,[49],> 100 µM (inactive)
same,GI50,[50],> 100 µM (inactive)
same,GI50,[51],> 100 µM (inactive)
same,GI50,[52],> 55 µM (inactive)
same,GI50,[53],> 100 µM (inactive)
same,GI50,[54],> 100 µM (inactive)
same,GI50,[55],> 100 µM (inactive)
same,GI50,[56],> 52.8 µM (inactive)
same,GI50,[57],67.3 µM (inactive)
same,GI50,[58],> 42 µM (inactive)
same,GI50,[59],> 100 µM (inactive)
